In patent publication US20110192396A1, “PHARMACEUTICAL COMPOSITION FOR PREVENTING OR TREATING CHRONIC OBSTRUCTIVE PULMONARY DISEASE” (DAEWOONG CO., LTD., priority 2008, published 2011):

Legend:
[1] = tested on: MUC5AC gene expression in NCI-H292 cells; test: Suppression of MUC5AC mucus gene expression in PA-LPS/TGF-α-treated NCI-H292 cells (real time PCR); format: cell-based, human; details: 50 ng/mL EGF; NCI-H292 cells pre-treated with PA-LPS and TGF-α for 6 hours; vs control with PA-LPS and TGF-α only
Experimental: NCI-H292 cells (ATCC, CRL-1848) were divided into a 6-well plate such that the number of the NCI-H292 cells per well was 10^6. The NCI-H292 cells were incubated in a 5% CO2 incubator at 37° C. for one day. The NCI-H292 cells were incubated in a serum free medium for one day, and then treated with 100 mg/mL of Pseudomonas aeruginosa lipopolysaccharide (PA-LPS, Sigma L8643) and 10 ng/mL of a transforming growth factor-alpha (TGF-α R&D systems 239-a-100) at the same time for 6 hours to induce overexpression of MUC5AC mucus. The PA-LPS and TGF-α were removed, and epidermal growth factors (EGFs) having different concentrations were added to the NCI-H292 cells. […]
RNA was isolated using a kit manufactured by QIAGEN (RNeasy Plus Mini Kit, 74134) according to the manuals provided by the manufacturer in order to isolate entire RNA. Absorbance of the isolated RNA was measured using a spectrophotometer at a wavelength of 260 nm to quantitatively analyze RNA. […]
A SYBR green assay was performed by adding cDNA, a forward primer, and a reverse primer to 12.5 mL of a SYBR green PCR master mix (Applied Biosystems, 4309155) such that the total volume of the mixture was set to 25 mL. […] The determined concentrations of the primers for MUC5AC, ICAM-1, RPL1 were respectively 900 nM, and the concentration β-ACT thereof was 300 nM. […]

MLE-12 cells = test: Protection of alveolar cells from elastase cell toxicity, neutral red uptake (NRU) assay; format: cell-based, murine; details: 100 μg/mL EGF; 2 U/mL elastase; elastase only = 100%, medium only = 0% cell toxicity
Experimental: MLE-12 cells were divided into a 96-well plate such that the number of MLE-12 cells per well was […]. The MLE-12 cells were incubated in 5% CO2 incubator at 37° C. for one day. […] A neutral red uptake (NRU) assay was performed using a neutral red that dyes only living cells to measure the degree of cell death. […] The cells were fixed using a fixing solution (1% formaldehyde, 1% CaCl2) for 1 minute, and the neutral red dye reagent was extracted using a chromogenic solution including 50% ethanol and 1% glacial acetic acid. Then, light absorbance was measured at a wavelength of 540 nm.

[2] = tested on: PPE-induced emphysema model; test: PPE-induced rat emphysema model, histopathological examination of lung and trachea; format: in vivo, Sprague-Dawley rats
Experimental: 6-week old male Sprague-Dawley rats (Japan SLC, Inc) having an average weight ranging from 200 to 250 g were accommodated for 1 week to prepare 7-week old rats. The rats were raised in individual ventilated cage (IVC) racks (GR900 plus rat cage, Polysulfone, 355 W×405 I×230 H mm) at a constant temperature (22±3° C.) at a constant relative humidity (55±15%) using fluorescent lamps (lights are on 08:00 to 20:00) for 12 hours, and food and water were fed ad libitum (solid feed 5L79, Orient Co., Ltd.). 120 U/kg, 1 mL/kg of pig pancreas elastase (PPE, Merck 324682) was administered once by intratracheal instillation to rats anesthetized with isoflurane. 1 mL/kg of 0.9% saline was administered once by intratracheal instillation to rats in the group in which emphysema was not induced. In order to uniformly administer test article into lung cavity, the same amount of air as the administered substances was administered during the intratracheal instillation. […] After 7 weeks from the PPE administration, the rats were anesthetized with isoflurane, and the lung and the trachea were isolated and fixed using 10% neutral formalin. Then histopathological examination of the lung and the trachea were performed and microscopic images were obtained. The test results were represented as average ±standard deviation. In order to detect a test group statistically significant from a control group, the results were statistically tested using one way ANOVA, and significance was analyzed using a multiple comparison method. […] In addition, FIGS. 7 and 8 illustrated the results of the tissue pathological tests of tracheas and lungs with a table.

[3] = G3: 0.1 mg/kg EGF intratracheal instillation, once a week for 3 weeks, rats

## EGF: recombinant proteins having the same amino acid sequence as natural human epidermal growth factor (hEGF); 53 amino acids, SEQ ID NO: 1
[1]
  reduction of expression of MUC5AC: 65%
MLE-12 cells
  reduction of cell toxicity: about 15%
[2]; G3, group with emphysema treated with EGF
  degree and number of enlargement and breakdown of alveoli compared with the control group of PPE-induced emphysema model: reduced
[2]; [3]
  cases with mild breakdown of alveoli: 3 cases
  cases with mild enlargement of alveoli: 3 cases
  cases with moderate breakdown of alveoli: 1 case
  cases with moderate enlargement of alveoli: 1 case
  cases with very mild breakdown of alveoli: 1 case
  cases with very mild enlargement of alveoli: 2 cases
  cases with very mild histiocytosis: 1 case
